Measurements taken from patent publication EP4650353A1 (Shanghai Institute of Materia Medica, Chinese Academy of …, priority 2023, dated 2024).

Experiments:
[1] = test system: β-arrestin 1; assay: NanoBiT recruitment of β-arrestin 1 by GLP-1R in HEK293 cells; assay type: cell-based, human; conditions: endogenous GLP-1 = 100%; Figure 1, n=3
Source text: (§1) The Promega NanoBiT protein-protein reaction system was used to detect the recruitment of β-arrestin 1 and β-arrestin 2 by GLP-1R. The NanoBit Protein-Protein Reaction System was a dual-subunit system based on NanoLuc luciferase that could be used to detect protein-protein interactions in cells. The LgBiT (17.6 kDa) and SmBiT (11 amino acids) subunits were fused to the proteins of interest, respectively. When the proteins of interest interact, the two subunits came into close proximity to form an enzyme with catalytic activity, which could catalyze the luminescence of the luciferase substrate. Firstly, the human GLP-1R gene was connected to the N-terminus of LgBit, the β-arrestin 1/2 gene was cloned to the C-terminus of SmBit, and the fusion protein was introduced into the pcDNA3.0 vector to construct plasmids expressing hGLP-1R-LgBit and SmBit-β-arrestin 1/2 fusion proteins. The hGLP-1R-LgBit plasmid and SmBit-β-arrestin 1 (or SmBit-β-arrestin 2) plasmid were co-transfected into HEK293 cells at a ratio of 1 µg plasmid/2×10^6 cells.

[2] = test system: β-arrestin 2; assay: NanoBiT recruitment of β-arrestin 2 by GLP-1R in HEK293 cells; assay type: cell-based, human; conditions: endogenous GLP-1 = 100%; Figure 2, n=3
Source text: as §1

CC[C@H](C)[C@H](NC(=O)[C@H](Cc1ccccc1)NC(=O)[C@H](CCC(=O)O)NC(=O)[C@H](CCCCN)NC(=O)[C@H](C)NC(=O)[C@H](C)NC(=O)[C@H](CCC(N)=O)NC(=O)CNC(=O)[C@H](CCC(=O)O)NC(=O)[C@H](CC(C)C)NC(=O)[C@H](Cc1ccc(O)cc1)NC(=O)[C@H](CO)NC(=O)[C@H](CO)NC(=O)[C@@H](NC(=O)[C@H](CC(=O)O)NC(=O)[C@H](CO)NC(=O)[C@@H](NC(=O)[C@H](Cc1ccccc1)NC(=O)[C@@H](NC(=O)CNC(=O)[C@H](CCC(=O)O)NC(=O)[C@H](C)NC(=O)[C@@H](N)Cc1c[nH]cn1)[C@@H](C)O)[C@@H](C)O)C(C)C)C(=O)N[C@@H](C)C(=O)N[C@@H](Cc1c[nH]c2ccccc12)C(=O)N[C@@H](CC(C)C)C(=O)N[C@H](C(=O)N[C@@H](CCCCN)C(=O)NCC(=O)N[C@@H](CCCNC(=N)N)C(N)=O)C(C)C [GLP-1]
maximum agonistic effect (Emax) recruiting β-arrestin 1 [1]: 100%
maximum agonistic effect (Emax) recruiting β-arrestin 2 [2]: 100%
